The text below walks through data of ChEMBL document CHEMBL5029180, “Design and synthesis of an oral prodrug alalevonadifloxacin for the treatment of MRSA infection” (Bioorg Med Chem Lett, 2021).

The structures appear in SMILES notation. Some results are limits rather than exact numbers.

Series [1] can be described thus: Aqueous solubility of compound at pH 7. It is filed as physicochemical.
A short description of series [2]: Prodrug activation in human intestinal S9 fraction assessed as S-(-)-nadifloxacin release measured after 90 mins by LC-MS/MS analysis. It is filed as subcellular, Intestine. Particulars: s9, 1.5 h.
Series [3] can be described thus: Prodrug activation in human whole blood assessed as S-(-)-nadifloxacin release measured after 30 to 60 mins by LC-MS/MS analysis. Particulars: time 30-60 min. It is filed as tissue-based.
Series [4] can be described thus: Prodrug activation in human liver S9 fraction assessed as S-(-)-nadifloxacin release measured after 30 to 60 mins by LC-MS/MS analysis. In kind it is subcellular. Particulars: time 30-60 min.

Broadly, the solubility is how much of the substance goes into solution per volume. Low readings indicate a poorly soluble substance, high ones a readily soluble substance. Take `CC(C)[C@H](N)C(=O)OC1CCN(c2c(F)cc3c(=O)c(C(=O)O)cn4c3c2CC[C@@H]4C)CC1`: the solubility in series [1] is over 200 mg/mL.

For the molecule `CS(=O)(=O)O.C[C@H](N)C(=O)OC1CCN(c2c(F)cc3c(=O)c(C(=O)O)cn4c3c2CC[C@@H]4C)CC1`, the Drug metabolism entry in series [2], in series [3] and in series [4] was “Metabolite_Detected” each time. The solubility in series [1] was under 1 mg/mL.

`C[C@H]1CCc2c(N3CCC(O)CC3)c(F)cc3c(=O)c(C(=O)O)cn1c23.N=C(N)NCCC[C@H](N)C(=O)O.O.O.O.O`: the solubility in series [1] is under 1 mg/mL.

As for `CC(C)[C@H](N)C(=O)OC1CCN(c2c(F)cc3c(=O)c(C(=O)O)cn4c3c2CC[C@@H]4C)CC1.CS(=O)(=O)O`, in series [1], the solubility was over 200 mg/mL.
